{"source": "patent US20040052799A1", "about": "“Nucleic acid and amino acid sequences relating to Helicobacter pylori for diagnostics and therapeutics” (Astra Aktiebolag, priority 1996, published 2004)", "key": {"[1]": {"assay": "Stability of ASA in solution", "format": "physicochemical", "method": "ASA in 4 N HCl was prepared daily for use in Asd assays by partial neutralization with addition of 1.0 equivalent of […], with a resulting pH=1-2. The amount of ASA was determined enzymatically by complete reaction in the presence of excess NADP^+and phosphate. […] These observations are consistent with previous reports on the stability of ASA (Karsten et al., 1991, Biochim. Biophys. Acta 1077, 209-219). Assays were performed in the following buffer: 200 mM HEPES, 0.3 mM NADP^+, 30 mM NaH2PO4, 1.0 mM DTT, pH 7.5 or pH 8.0. ASA was used in the assay at concentrations of 5-165 μM by diluting the partially-neutralized ASA stock into the assay 10-200 fold, leading to a decrease in pH of 0.1 units or less. Reaction was initiated with the addition of enzyme to a final concentration of 3.5-70 nM."}, "H. pylori Asd": {"biological_target": "H. pylori Asd (Helicobacter pylori, UniProt Q9ZK28)", "sequence (Q9ZK28 whole entry)": "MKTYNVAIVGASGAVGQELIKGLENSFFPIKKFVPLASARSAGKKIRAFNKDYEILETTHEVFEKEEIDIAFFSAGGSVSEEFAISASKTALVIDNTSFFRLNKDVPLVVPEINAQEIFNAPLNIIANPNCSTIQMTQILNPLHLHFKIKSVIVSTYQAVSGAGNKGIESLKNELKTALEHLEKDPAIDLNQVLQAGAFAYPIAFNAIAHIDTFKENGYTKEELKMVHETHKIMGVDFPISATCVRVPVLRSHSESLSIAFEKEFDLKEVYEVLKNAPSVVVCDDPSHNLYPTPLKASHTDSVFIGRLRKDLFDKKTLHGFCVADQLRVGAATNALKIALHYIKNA", "assay": "Asd assay, reverse reaction, NADPH formation", "conditions": "read-out: Km for phosphate; pH 8.0", "method": "(§1) The enzymatic activity of purified His-tagged H. pylori Asd (SEQ ID NO: 6545) was characterized by assaying the reverse reaction of phosphorylation of L-aspartate-β-semialdehyde (ASA) to L-p-aspartyl phosphate, with concomitant reduction of NADP^+ to NADPH. The formation of NADPH was detected by its absorbance, 340 nm, or by its fluorescence, excitation =340 nm, emission 455 nm.\n(§2) ASA in 4 N HCl was prepared daily for use in Asd assays by partial neutralization with addition of 1.0 equivalent of […], with a resulting pH=1-2. The amount of ASA was determined enzymatically by complete reaction in the presence of excess NADP^+and phosphate. […] Assays were performed in the following buffer: 200 mM HEPES, 0.3 mM NADP^+, 30 mM NaH2PO4, 1.0 mM DTT, pH 7.5 or pH 8.0. ASA was used in the assay at concentrations of 5-165 μM by diluting the partially-neutralized ASA stock into the assay 10-200 fold, leading to a decrease in pH of 0.1 units or less. Reaction was initiated with the addition of enzyme to a final concentration of 3.5-70 nM."}, "E. coli Asd": {"biological_target": "T1, E. coli Asd (Escherichia coli, UniProt P0A9Q9)", "T1 construct": "made in house; host or cells: E. coli HMS174 pLysS, pET28b", "T1 sequence (P0A9Q9 1-367)": "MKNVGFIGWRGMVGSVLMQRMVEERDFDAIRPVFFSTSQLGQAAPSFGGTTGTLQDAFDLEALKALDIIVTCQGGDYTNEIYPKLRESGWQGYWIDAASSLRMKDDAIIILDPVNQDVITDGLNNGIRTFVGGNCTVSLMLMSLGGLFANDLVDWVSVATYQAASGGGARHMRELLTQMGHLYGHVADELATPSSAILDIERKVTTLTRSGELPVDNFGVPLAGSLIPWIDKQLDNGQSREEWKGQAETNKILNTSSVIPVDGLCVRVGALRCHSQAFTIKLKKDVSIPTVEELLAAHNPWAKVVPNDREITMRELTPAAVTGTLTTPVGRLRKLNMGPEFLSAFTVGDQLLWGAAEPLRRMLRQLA", "assay": "Asd assay, reverse reaction, NADPH formation", "format": "biochemical", "conditions": "pH 7.5; read-out: Km for phosphate", "method": "as §1, §2"}, "H. pylori (strain AH244)": {"tested_on": "H. pylori (strain AH244)", "format": "in vivo", "conditions": "BALB/c mice infected with strain AH244, 100 μg antigen + 10 μg CT orally, compared to control, FIGS. 3 and 4"}, "[2]": {"biological_target": "T2, H. pylori glutamate racemase (Helicobacter pylori, UniProt Q9ZLT0)", "T2 construct": "made in house; host or cells: E. coli BL21(DE3) carrying pET-23-murI and pACYC-groE (GroES/GroEL co-expressed)", "T2 sequence (Q9ZLT0 whole entry)": "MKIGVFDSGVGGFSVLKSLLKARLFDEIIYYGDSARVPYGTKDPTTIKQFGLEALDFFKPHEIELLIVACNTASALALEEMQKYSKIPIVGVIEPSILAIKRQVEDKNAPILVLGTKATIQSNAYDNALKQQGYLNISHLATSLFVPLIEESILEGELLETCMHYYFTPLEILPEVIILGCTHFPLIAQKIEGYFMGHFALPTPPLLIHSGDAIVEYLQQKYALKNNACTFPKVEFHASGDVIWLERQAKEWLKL", "assay": "Inactivation of glutamate racemase by L-serine-O-sulfate, single enzyme coupled assay", "format": "biochemical", "conditions": "20 mM L-serine-O-sulfate, different incubation times, FIG. 7", "method": "In this assay, the conversion of D-glutamic acid to L-glutamic acid is coupled to the conversion of L-glutamic acid and NAD^+by L-glutamate dehydrogenase to 2-oxoglutarate, ammonia. The production of NADH is measured as an increase of absorbance at 340 nm (the reduction of NAD^+ to NADH) at 37° C. The standard assay mixture (adapted from Choi, S- Y, Esaki, N., Yoshimura, T., and Soda, K., 1991, Protein Expression and Purification 2, 90-93) contained 10 mM Tris-HCl, pH 7.5, 5 mM NAD+, 5 Units/ml L-glutamate dehydrogenase, varying concentrations of the substrate D-Glutamic Acid (0.063 mM to 250 mM), and the purified recombinant H. pylori enzyme glutamate racemase (1 μg to 50 μg). The reaction was started by the addition of either the substrate D-glutamic acid or the recombinant glutamate racemase after a preincubation at 37° C. for 5 minutes with all of the other assay ingredients. The change in absorbance at 340 nm was measured in a Spectra MAX 250. Initial velocities were derived from the initial slopes. […]\nThe H. pylori glutamate racemase was tested for inactivation with a sucuide inhibitor, L-serine-O sulfate, which is known to inhibit murI from E. coli. […] The initial velocity of purified recombinant H. pylroi murI protein was determined in the single enzyme coupled asssay following incubation with the inhibitor L-serine-O-sulfate (LSOS) at 20 mM for the times indicated on the x-axis. […]"}}, "note": "Where two headings read alike, the source gives them in different places.", "data": [{"compound": "N[C@@H](CC=O)C(=O)O", "note": "[ASA, L-aspartate-β-semialdehyde]", "values": [{"measurement": "half-life", "setting": "[1]; assay buffer, pH 7.7 (under assay conditions), read-out: t½ (converted)", "result": 5, "unit": "h"}, {"measurement": "time ASA found to be stable", "setting": "[1]; pH 1.4", "result": "up to 48 hours"}]}, {"compound": "phosphate [reference compound]", "values": [{"measurement": "Km", "setting": "H. pylori Asd", "result": 2100, "unit": "µM"}, {"measurement": "Km", "setting": "E. coli Asd", "result": 1300, "unit": "µM"}]}, {"compound": "lacZ: non-Helicobacter pylori control protein (β-galactosidase from E. coli) constructed with a hexa-HIS tag [reference compound]", "values": [{"measurement": "degree of colonization of the antrum", "setting": "H. pylori (strain AH244)", "result": "higher Helicobacter colonization"}, {"measurement": "reduction and/or eradication of the H. pylori infection (therapeutic immunization effect)", "setting": "H. pylori (strain AH244)", "result": "no eradication effect"}, {"measurement": "degree of colonization of the antrum", "setting": "H. pylori (strain AH244); listed as LacZ", "result": "highest colonization in the antrum"}]}, {"compound": "N[C@@H](COS(=O)(=O)O)C(=O)O", "note": "[L-Serine-O-Sulfate]", "values": [{"measurement": "inactivation of glutamate racemase by the inhibitor (residual initial velocity)", "setting": "[2]", "result": "readily inactivated"}]}]}
